Assay results published in US20050113334A1, “COMPOSITION AND METHOD” (priority 2003, published 2005).

System: Desulfovibrio spp.
Experiment: In vitro fermentation of fibers with canine fecal inoculum, FISH enumeration
Assay type: cell-based
Details: 39° C.; for Numbers of Desulfovibrio spp., LOG10 CFU AT 8 HOUR: after 8 hour incubation
Description: Fermentation vessels containing anaerobic phosphate buffered medium were prepared and 1 ml canine fecal inoculum (10% w/v fecal sample to buffer) added. The composition of the media was as described in Sunvold G D, Hussein H S, Fahey G C, Merchen N R, and Reinhart G A (1995), In vitro fermentation of selected fiber sources by dogs fecal inoculum and in vivo digestion and metabolism of fiber supplemental diets. J. Animal Sci. 73:1099-1109 (1995). Fermentations were carried out at 39° C. Experiments were conducted in a blind-coded manner with different fibers. […] An aliquot of this was prepared for FISH. […] Genus specific 16SrRNA-targeted probes were synthesized and monolabelled at the 5″ end with fluorescent dye to detect bacteria of interest in the fermentation media. Total nucleic acid was stained to obtain total microbial counts.

Row | Substance | Numbers of Desulfovibrio spp., Log10 CFU AT 0 HOUR | Numbers of Desulfovibrio spp., LOG10 CFU AT 8 HOUR
1 | Fructooligosaccharide | 6.9 ± 1.0 log cfu/ml of fecal inoculum | 6.3 ± 0.8 log cfu/ml of fecal inoculum
2 | Inulin | 7.3 ± 0.2 log cfu/ml of fecal inoculum | 6.4 ± 1.0 log cfu/ml of fecal inoculum
3 | Xylooligosaccharide | 7.2 ± 0.4 log cfu/ml of fecal inoculum | 6.8 ± 0.9 log cfu/ml of fecal inoculum
4 | Galacto-oligosaccharide | 7.0 ± 1.0 log cfu/ml of fecal inoculum | 6.8 ± 0.9 log cfu/ml of fecal inoculum
5 | Arabinogalactan | 7.5 ± 0.3 log cfu/ml of fecal inoculum | 6.4 ± 1.0 log cfu/ml of fecal inoculum
